According to US7138361B2, “Herbicidal heterocycles” (E. I. du Pont de Nemours and Company, priority 2000, dated 2006):

Experiments:
Assay type in all cases: in vivo
[1] = tested on: Surinam grass (Brachiaria decumbens); assay: Test B postemergence; settings: 13 to 15 days
Method in brief: (§1)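 Post-treatment, species sat 13–15 days under greenhouse conditions before visual scoring against controls, 0 (no effect) through 100 (complete control). Application preemergence to sown seeds or postemergence at 1- to 4-leaf stage, using a non-phytotoxic solvent/surfactant formulation.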

[2] = tested on: giant foxtail (Setaria faberii); assay: Test B postemergence; settings: 13 to 15 days
Method in brief: as §1

[3] = tested on: blackgrass (Alopecurus myosuroides); assay: Test B postemergence; settings: 13 to 15 days
Method in brief: as §1

[4] = tested on: wheat (Triticum aestivum); assay: Test B postemergence; settings: 13 to 15 days
Method in brief: as §1

[5] = tested on: morning glory (Ipomoea hederacea); assay: Test B postemergence; settings: 13 to 15 days
Method in brief: as §1

corn (Zea mays) [6] = assay: Test B postemergence; settings: 13 to 15 days
Method in brief: as §1

[7] = tested on: barnyardgrass (Echinochloa crus-galli); assay: Test B postemergence; settings: 13 to 15 days
Method in brief: as §1

[8] = tested on: velvetleaf (Abutilon theophrasti); assay: Test B postemergence; settings: 13 to 15 days
Method in brief: as §1

[9] = tested on: Surinam grass (Brachiaria decumbens); assay: Test B preemergence; settings: scale 0 to 100, 0 no effect, 100 complete control
Method in brief: as §1

[10] = tested on: giant foxtail (Setaria faberii); assay: Test B preemergence; settings: scale 0 to 100, 0 no effect, 100 complete control
Method in brief: as §1

rice (Oryza saliva) = assay: Test B preemergence; settings: scale 0 to 100, 0 no effect, 100 complete control
Method in brief: as §1

[11] = tested on: morning glory (Ipomoea hederacea); assay: Test B preemergence; settings: scale 0 to 100, 0 no effect, 100 complete control
Method in brief: as §1

corn (Zea mays) [12] = assay: Test B preemergence; settings: scale 0 to 100, 0 no effect, 100 complete control
Method in brief: as §1

[13] = tested on: barnyardgrass (Echinochloa crus-galli); assay: Test B preemergence; settings: scale 0 to 100, 0 no effect, 100 complete control
Method in brief: as §1

[14] = tested on: pigweed (Amaranthus retroflexus); assay: Test B preemergence; settings: scale 0 to 100, 0 no effect, 100 complete control
Method in brief: as §1

[15] = tested on: lambsquarters (Chenopodium album); assay: Test B preemergence; settings: scale 0 to 100, 0 no effect, 100 complete control
Method in brief: as §1

[16] = tested on: velvetleaf (Abutilon theophrasti); assay: Test B preemergence; settings: scale 0 to 100, 0 no effect, 100 complete control
Method in brief: as §1

[17] = tested on: crabgrass (Digitaria sanguinalis); assay: Test B preemergence; settings: scale 0 to 100, 0 no effect, 100 complete control
Method in brief: as §1

[18] = tested on: cocklebur (Xanthium strumarium); assay: Test B preemergence; settings: scale 0 to 100, 0 no effect, 100 complete control
Method in brief: as §1

[19] = Rate 125 g/ha, scale 0 (no effect) to 100 (complete control)
[20] = Rate 500 g/ha, scale 0 to 100, 0 is no effect, 100 is complete control

Question: Which “Plant response rating, Surinam grass” value [1, 19] does the source give for `CCC(C)c1nn(C2CCN(c3cccc(C(F)(F)F)c3)C2=O)cc1Cl` (stereo not shown) [Compound 13] here?
Answer: Its value is 0.

Question: What about the “Plant response rating, Surinam grass” value [1, 20] of the same molecule?
Answer: Its value is 0.

Question: And the “Plant response rating, Foxtail, Giant” value [2, 19]?
Answer: Its value is 0.

Question: And the “Plant response rating, Foxtail, Giant” value [2, 20]?
Answer: The value was 0.

Question: And the “Plant response rating, Blackgrass” value [3, 19]?
Answer: Its value is 0.

Question: What about the “Plant response rating, Blackgrass” value [3, 20] of the same molecule?
Answer: Its value is 0.

Question: What about the “Plant response rating, Wheat” value [4, 19] of the same molecule?
Answer: The value was 0.

Question: And the “Plant response rating, Wheat” value [4, 20]?
Answer: The value was 0.

Question: And the “Plant response rating, Morningglory” value [5, 19]?
Answer: Its value is 0.

Question: What about the “Plant response rating, Morningglory” value [5, 20] of the same molecule?
Answer: Its value is 70.

Question: And the “Plant response rating, Corn” value (corn (Zea mays) [6]; [19])?
Answer: Its value is 0.

Question: What about the “Plant response rating, Corn” value (corn (Zea mays) [6]; [20]) of the same molecule?
Answer: The value was 0.

Question: What about the “Plant response rating, Barnyardgrass” value [7, 19] of the same molecule?
Answer: The value was 0.

Question: And the “Plant response rating, Barnyardgrass” value [7, 20]?
Answer: The value was 0.

Question: And the “Plant response rating, Velvetleaf” value [8, 19]?
Answer: The value was 0.

Question: What about the “Plant response rating, Velvetleaf” value [8, 20] of the same molecule?
Answer: Its value is 0.

Question: What about the “Plant response rating, Surinam grass” value ([9]; Preemergence, Rate 500 g/ha) of the same molecule?
Answer: Its value is 0.

Question: And the “Plant response rating, Surinam grass” value ([9]; preemergence, Rate 125 g/ha)?
Answer: Its value is 0.

Question: What about the “Plant response rating, Foxtail, Giant” value ([10]; Preemergence, Rate 500 g/ha) of the same molecule?
Answer: Its value is 0.

Question: What about the “Plant response rating, Foxtail, Giant” value ([10]; preemergence, Rate 125 g/ha) of the same molecule?
Answer: The value was 0.

Question: What about the “Plant response rating, Rice” value (rice (Oryza saliva); Preemergence, Rate 500 g/ha) of the same molecule?
Answer: The value was 0.

Question: And the “Plant response rating, Rice” value (rice (Oryza saliva); preemergence, Rate 125 g/ha)?
Answer: Its value is 0.

Question: And the “Plant response rating, Morningglory” value ([11]; Preemergence, Rate 500 g/ha)?
Answer: The value was 0.

Question: And the “Plant response rating, Morningglory” value ([11]; preemergence, Rate 125 g/ha)?
Answer: Its value is 0.

Question: What about the “Plant response rating, Corn” value (corn (Zea mays) [12]; Preemergence, Rate 500 g/ha) of the same molecule?
Answer: Its value is 0.

Question: And the “Plant response rating, Corn” value (corn (Zea mays) [12]; preemergence, Rate 125 g/ha)?
Answer: The value was 0.

Question: And the “Plant response rating, Barnyardgrass” value ([13]; Preemergence, Rate 500 g/ha)?
Answer: The value was 0.

Question: And the “Plant response rating, Barnyardgrass” value ([13]; preemergence, Rate 125 g/ha)?
Answer: Its value is 0.

Question: And the “Plant response rating, Pigweed” value ([14]; Preemergence, Rate 500 g/ha)?
Answer: Its value is 0.

Question: What about the “Plant response rating, Pigweed” value ([14]; preemergence, Rate 125 g/ha) of the same molecule?
Answer: Its value is 0.

Question: And the “Plant response rating, Lambsquarters” value ([15]; Preemergence, Rate 500 g/ha)?
Answer: The value was 0.

Question: What about the “Plant response rating, Lambsquarters” value ([15]; preemergence, Rate 125 g/ha) of the same molecule?
Answer: Its value is 0.

Question: And the “Plant response rating, Velvetleaf” value ([16]; Preemergence, Rate 500 g/ha)?
Answer: Its value is 0.

Question: And the “Plant response rating, Velvetleaf” value ([16]; preemergence, Rate 125 g/ha)?
Answer: Its value is 0.

Question: And the “Plant response rating, Crabgrass” value ([17]; Preemergence, Rate 500 g/ha)?
Answer: The value was 0.

Question: And the “Plant response rating, Crabgrass” value ([17]; preemergence, Rate 125 g/ha)?
Answer: The value was 0.

Question: And the “Plant response rating, Cocklebur” value ([18]; Preemergence, Rate 500 g/ha)?
Answer: The value was 0.

Question: And the “Plant response rating, Cocklebur” value ([18]; preemergence, Rate 125 g/ha)?
Answer: The value was 0.

Question: With `CC(C)(C)c1nn(C2CCN(c3cccc(C(F)(F)F)c3)C2=O)cc1Cl` (stereo not shown) [Compound 14] as the molecule, how does the “Plant response rating, Surinam grass” value [1, 19] read?
Answer: Its value is 0.

Question: What about the “Plant response rating, Surinam grass” value [1, 20] of the same molecule?
Answer: The value was 0.

Question: And the “Plant response rating, Foxtail, Giant” value [2, 19]?
Answer: The value was 20.

Question: What about the “Plant response rating, Foxtail, Giant” value [2, 20] of the same molecule?
Answer: The value was 30.

Question: And the “Plant response rating, Blackgrass” value [3, 19]?
Answer: Its value is 0.

Question: What about the “Plant response rating, Blackgrass” value [3, 20] of the same molecule?
Answer: Its value is 0.

Question: What about the “Plant response rating, Wheat” value [4, 19] of the same molecule?
Answer: The value was 0.

Question: What about the “Plant response rating, Wheat” value [4, 20] of the same molecule?
Answer: The value was 0.

Question: And the “Plant response rating, Morningglory” value [5, 19]?
Answer: Its value is 30.

Question: What about the “Plant response rating, Morningglory” value [5, 20] of the same molecule?
Answer: The value was 80.

Question: And the “Plant response rating, Corn” value (corn (Zea mays) [6]; [19])?
Answer: Its value is 0.

Question: What about the “Plant response rating, Corn” value (corn (Zea mays) [6]; [20]) of the same molecule?
Answer: The value was 0.

Question: What about the “Plant response rating, Barnyardgrass” value [7, 19] of the same molecule?
Answer: The value was 0.

Question: What about the “Plant response rating, Barnyardgrass” value [7, 20] of the same molecule?
Answer: The value was 0.

Question: What about the “Plant response rating, Velvetleaf” value [8, 19] of the same molecule?
Answer: The value was 0.

Question: And the “Plant response rating, Velvetleaf” value [8, 20]?
Answer: The value was 0.

Question: What about the “Plant response rating, Surinam grass” value ([9]; Preemergence, Rate 500 g/ha) of the same molecule?
Answer: The value was 0.

Question: What about the “Plant response rating, Surinam grass” value ([9]; preemergence, Rate 125 g/ha) of the same molecule?
Answer: Its value is 0.

Question: And the “Plant response rating, Foxtail, Giant” value ([10]; Preemergence, Rate 500 g/ha)?
Answer: The value was 0.

Question: What about the “Plant response rating, Foxtail, Giant” value ([10]; preemergence, Rate 125 g/ha) of the same molecule?
Answer: The value was 0.

Question: And the “Plant response rating, Rice” value (rice (Oryza saliva); Preemergence, Rate 500 g/ha)?
Answer: Its value is 0.

Question: And the “Plant response rating, Rice” value (rice (Oryza saliva); preemergence, Rate 125 g/ha)?
Answer: The value was 0.

Question: And the “Plant response rating, Morningglory” value ([11]; Preemergence, Rate 500 g/ha)?
Answer: Its value is 0.

Question: What about the “Plant response rating, Morningglory” value ([11]; preemergence, Rate 125 g/ha) of the same molecule?
Answer: Its value is 0.

Question: What about the “Plant response rating, Corn” value (corn (Zea mays) [12]; Preemergence, Rate 500 g/ha) of the same molecule?
Answer: Its value is 0.

Question: What about the “Plant response rating, Corn” value (corn (Zea mays) [12]; preemergence, Rate 125 g/ha) of the same molecule?
Answer: Its value is 0.

Question: What about the “Plant response rating, Barnyardgrass” value ([13]; Preemergence, Rate 500 g/ha) of the same molecule?
Answer: The value was 0.

Question: What about the “Plant response rating, Barnyardgrass” value ([13]; preemergence, Rate 125 g/ha) of the same molecule?
Answer: The value was 0.

Question: And the “Plant response rating, Pigweed” value ([14]; Preemergence, Rate 500 g/ha)?
Answer: Its value is 0.

Question: And the “Plant response rating, Pigweed” value ([14]; preemergence, Rate 125 g/ha)?
Answer: Its value is 0.

Question: What about the “Plant response rating, Lambsquarters” value ([15]; Preemergence, Rate 500 g/ha) of the same molecule?
Answer: Its value is 0.

Question: What about the “Plant response rating, Lambsquarters” value ([15]; preemergence, Rate 125 g/ha) of the same molecule?
Answer: Its value is 0.

Question: What about the “Plant response rating, Velvetleaf” value ([16]; Preemergence, Rate 500 g/ha) of the same molecule?
Answer: Its value is 0.

Question: And the “Plant response rating, Velvetleaf” value ([16]; preemergence, Rate 125 g/ha)?
Answer: Its value is 0.

Question: And the “Plant response rating, Crabgrass” value ([17]; Preemergence, Rate 500 g/ha)?
Answer: The value was 0.

Question: And the “Plant response rating, Crabgrass” value ([17]; preemergence, Rate 125 g/ha)?
Answer: Its value is 0.

Question: And the “Plant response rating, Cocklebur” value ([18]; Preemergence, Rate 500 g/ha)?
Answer: The value was 0.

Question: What about the “Plant response rating, Cocklebur” value ([18]; preemergence, Rate 125 g/ha) of the same molecule?
Answer: Its value is 0.
